Reference: patent US20220071996A1, “ORAL FORMULATIONS OF BRANAPLAM” (NOVARTIS AG, priority 2018, published 2022)
In brackets after ≈: the same amount, converted by molar mass. Where two headings read alike, the source gives them in different places.

Experiments:
[1] = phase solubility of branaplam in 2-hydroxypropyl-beta-cyclodextrin solutions; format: physicochemical; settings: room temperature
[2] = solubility of branaplam in selected excipients; format: physicochemical; settings: pH 4, aqueous with cosolvent or surfactant or cyclodextrin, thermodynamic from solid
Procedure: (§1) Solubility of branaplam was evaluated in excipients, other than cyclodextrin, such as Cremophor RH40, Tween 80, PG, PEG300, and glycerol. These excipients and concentrations were selected as they are suitable for paediatric formulations. None of the tested excipients was able to support development of a formulation comprising branaplam at a concentration high enough (i.e. about 2 mg/ml or higher) to keep the dose volume in a suitable range (Table 6).
as §1, with “5a).” for “6).”
Solubility of branaplam was measured as follows: stock solutions for the excipients at target concentrations were prepared using milli-Q water and adjusted using pH 4.0 buffer. […] Suspensions were stirred for 24 hours (using a magnetic stirrer) ensuring sufficient swirling and monitoring the temperature. The suspensions were filtered through 0.45 μm nominal pore size filter (e.g. using a PES syringe), and the concentration of branaplam in the filtrate was measured using HPLC (high performance liquid chromatography). The measurements were performed in duplicate and average of the values are reported.

Question: With CC1(C)CC(Oc2ccc(-c3ccc(-c4cn[nH]c4)cc3O)nn2)CC(C)(C)N1 [branaplam, 5-(1H-pyrazol-4-yl)-2-(6-((2,2,6,6-tetramethylpiperidin-4-yl)oxy)pyridazin-3-yl)phenol] as the compound, how does the “branaplam dissolved using 17.5% HP-b-CD” value [1] read?
Answer: about 10 mg/mL

Question: And the solubility at 24 h ([2]; 2 °C, in Cremophor RH 40 15.0% (w/v), pH 4.0 buffer, 2-8° C., read-out: Solubility (mg/mL) 2-8° C.)?
Answer: 1.19 mg/mL (≈ 3020 µM)

Question: What about the solubility at 24 h ([2]; 25 °C, in Cremophor RH 40 15.0% (w/v), pH 4.0 buffer, RT, read-out: Solubility (mg/mL) RT) of the same compound?
Answer: 1.32 mg/mL (≈ 3350 µM)

Question: What about the solubility at 24 h ([2]; Cremophor RH 40 1.0% (w/v) aqueous solution in pH 4.0 buffer, 2 °C, in Cremophor RH 40 1.0% (w/v), pH 4.0 buffer, 2-8° C., read-out: Solubility (mg/mL) 2-8° C.) of the same compound?
Answer: 0.17 mg/mL (≈ 432 µM)

Question: What about the solubility at 24 h ([2]; Cremophor RH 40 1.0% (w/v) aqueous solution in pH 4.0 buffer, 25 °C, in Cremophor RH 40 1.0% (w/v), pH 4.0 buffer, RT, read-out: Solubility (mg/mL) RT) of the same compound?
Answer: 0.28 mg/mL (≈ 712 µM)

Question: What about the solubility at 24 h ([2]; Cremophor RH 40 3.5% (w/v) aqueous solution in pH 4.0 buffer, 2 °C, in Cremophor RH 40 3.5% (w/v), pH 4.0 buffer, 2-8° C., read-out: Solubility (mg/mL) 2-8° C.) of the same compound?
Answer: 0.44 mg/mL (≈ 1120 µM)

Question: And the solubility at 24 h ([2]; Cremophor RH 40 3.5% (w/v) aqueous solution in pH 4.0 buffer, 25 °C, in Cremophor RH 40 3.5% (w/v), pH 4.0 buffer, RT, read-out: Solubility (mg/mL) RT)?
Answer: 0.53 mg/mL (≈ 1350 µM)

Question: And the solubility at 24 h ([2]; Cremophor RH 40 7.0% (w/v) aqueous solution in pH 4.0 buffer, 2 °C, in Cremophor RH 40 7.0% (w/v), pH 4.0 buffer, 2-8° C., read-out: Solubility (mg/mL) 2-8° C.)?
Answer: 0.71 mg/mL (≈ 1800 µM)

Question: And the solubility at 24 h ([2]; Cremophor RH 40 7.0% (w/v) aqueous solution in pH 4.0 buffer, 25 °C, in Cremophor RH 40 7.0% (w/v), pH 4.0 buffer, RT, read-out: Solubility (mg/mL) RT)?
Answer: 0.84 mg/mL (≈ 2130 µM)

Question: What about the solubility at 24 h ([2]; aqueous excipient solution, 2 °C, in Glycerol 5.0% (w/w), 2-8° C., read-out: Solubility (mg/mL) 2-8° C.) of the same compound?
Answer: 0.2 mg/mL (≈ 508 µM)

Question: What about the solubility at 24 h ([2]; aqueous excipient solution, 2 °C, in Glycerol 10.0% (w/w), 2-8° C., read-out: Solubility (mg/mL) 2-8° C.) of the same compound?
Answer: 0.19 mg/mL (≈ 483 µM)

Question: What about the solubility at 24 h ([2]; aqueous excipient solution, 2 °C, in PEG 300 5.0% (w/w), 2-8° C., read-out: Solubility (mg/mL) 2-8° C.) of the same compound?
Answer: 0.27 mg/mL (≈ 686 µM)

Question: And the solubility at 24 h ([2]; aqueous excipient solution, 2 °C, in PEG 300 10.0% (w/w), 2-8° C., read-out: Solubility (mg/mL) 2-8° C.)?
Answer: 0.34 mg/mL (≈ 864 µM)

Question: What about the solubility at 24 h ([2]; aqueous excipient solution, 2 °C, in PEG 300 25.0% (w/w), 2-8° C., read-out: Solubility (mg/mL) 2-8° C.) of the same compound?
Answer: 0.87 mg/mL (≈ 2210 µM)

Question: What about the solubility at 24 h ([2]; aqueous excipient solution, 2 °C, in PEG 400 5.0% (w/w), 2-8° C., read-out: Solubility (mg/mL) 2-8° C.) of the same compound?
Answer: 0.21 mg/mL (≈ 534 µM)

Question: What about the solubility at 24 h ([2]; aqueous excipient solution, 2 °C, in PEG 400 10.0% (w/w), 2-8° C., read-out: Solubility (mg/mL) 2-8° C.) of the same compound?
Answer: 0.45 mg/mL (≈ 1140 µM)

Question: What about the solubility at 24 h ([2]; aqueous excipient solution, 2 °C, in PEG 400 25.0% (w/w), 2-8° C., read-out: Solubility (mg/mL) 2-8° C.) of the same compound?
Answer: 0.93 mg/mL (≈ 2360 µM)

Question: And the solubility at 24 h ([2]; aqueous excipient solution, 2 °C, in Propylene glycol 5.0% (w/w), 2-8° C., read-out: Solubility (mg/mL) 2-8° C.)?
Answer: 0.16 mg/mL (≈ 407 µM)

Question: And the solubility at 24 h ([2]; aqueous excipient solution, 2 °C, in Propylene glycol 10.0% (w/w), 2-8° C., read-out: Solubility (mg/mL) 2-8° C.)?
Answer: 0.18 mg/mL (≈ 457 µM)

Question: What about the solubility at 24 h ([2]; aqueous excipient solution, 2 °C, in Propylene glycol 25.0% (w/w), 2-8° C., read-out: Solubility (mg/mL) 2-8° C.) of the same compound?
Answer: 0.42 mg/mL (≈ 1070 µM)

Question: And the solubility at 24 h ([2]; aqueous excipient solution, 2 °C, in Tween 80 0.5% (w/w), 2-8° C., read-out: Solubility (mg/mL) 2-8° C.)?
Answer: 0.16 mg/mL (≈ 407 µM)

Question: And the solubility at 24 h ([2]; aqueous excipient solution, 2 °C, in Tween 80 0.8% (w/w), 2-8° C., read-out: Solubility (mg/mL) 2-8° C.)?
Answer: 0.22 mg/mL (≈ 559 µM)

Question: What about the solubility at 24 h ([2]; aqueous excipient solution, 2 °C, in Tween 80 1.5% (w/w), 2-8° C., read-out: Solubility (mg/mL) 2-8° C.) of the same compound?
Answer: 0.29 mg/mL (≈ 737 µM)

Question: What about the solubility at 24 h ([2]; aqueous excipient solution, 2 °C, in Tween 80 5.0% (w/w), 2-8° C., read-out: Solubility (mg/mL) 2-8° C.) of the same compound?
Answer: 0.73 mg/mL (≈ 1860 µM)

Question: And the solubility at 24 h ([2]; aqueous excipient solution, 25 °C, in Glycerol 5.0% (w/w), RT, read-out: Solubility (mg/mL) RT)?
Answer: 0.18 mg/mL (≈ 457 µM)

Question: What about the solubility at 24 h ([2]; aqueous excipient solution, 25 °C, in Glycerol 10.0% (w/w), RT, read-out: Solubility (mg/mL) RT) of the same compound?
Answer: 0.22 mg/mL (≈ 559 µM)

Question: What about the solubility at 24 h ([2]; aqueous excipient solution, 25 °C, in PEG 300 5.0% (w/w), RT, read-out: Solubility (mg/mL) RT) of the same compound?
Answer: 0.39 mg/mL (≈ 991 µM)

Question: And the solubility at 24 h ([2]; aqueous excipient solution, 25 °C, in PEG 300 10.0% (w/w), RT, read-out: Solubility (mg/mL) RT)?
Answer: 0.64 mg/mL (≈ 1630 µM)

Question: And the solubility at 24 h ([2]; aqueous excipient solution, 25 °C, in PEG 300 25.0% (w/w), RT, read-out: Solubility (mg/mL) RT)?
Answer: 1.61 mg/mL (≈ 4090 µM)

Question: What about the solubility at 24 h ([2]; aqueous excipient solution, 25 °C, in PEG 400 5.0% (w/w), RT, read-out: Solubility (mg/mL) RT) of the same compound?
Answer: 0.39 mg/mL (≈ 991 µM)

Question: And the solubility at 24 h ([2]; aqueous excipient solution, 25 °C, in PEG 400 10.0% (w/w), RT, read-out: Solubility (mg/mL) RT)?
Answer: 0.63 mg/mL (≈ 1600 µM)

Question: What about the solubility at 24 h ([2]; aqueous excipient solution, 25 °C, in PEG 400 25.0% (w/w), RT, read-out: Solubility (mg/mL) RT) of the same compound?
Answer: 1.47 mg/mL (≈ 3740 µM)

Question: What about the solubility at 24 h ([2]; aqueous excipient solution, 25 °C, in Propylene glycol 5.0% (w/w), RT, read-out: Solubility (mg/mL) RT) of the same compound?
Answer: 0.27 mg/mL (≈ 686 µM)

Question: And the solubility at 24 h ([2]; aqueous excipient solution, 25 °C, in Propylene glycol 10.0% (w/w), RT, read-out: Solubility (mg/mL) RT)?
Answer: 0.37 mg/mL (≈ 940 µM)

Question: What about the solubility at 24 h ([2]; aqueous excipient solution, 25 °C, in Propylene glycol 25.0% (w/w), RT, read-out: Solubility (mg/mL) RT) of the same compound?
Answer: 0.94 mg/mL (≈ 2390 µM)

Question: What about the solubility at 24 h ([2]; aqueous excipient solution, 25 °C, in Tween 80 0.5% (w/w), RT, read-out: Solubility (mg/mL) RT) of the same compound?
Answer: 0.25 mg/mL (≈ 635 µM)

Question: And the solubility at 24 h ([2]; aqueous excipient solution, 25 °C, in Tween 80 0.8% (w/w), RT, read-out: Solubility (mg/mL) RT)?
Answer: 0.28 mg/mL (≈ 712 µM)

Question: And the solubility at 24 h ([2]; aqueous excipient solution, 25 °C, in Tween 80 1.5% (w/w), RT, read-out: Solubility (mg/mL) RT)?
Answer: 0.41 mg/mL (≈ 1040 µM)

Question: And the solubility at 24 h ([2]; aqueous excipient solution, 25 °C, in Tween 80 5.0% (w/w), RT, read-out: Solubility (mg/mL) RT)?
Answer: 0.89 mg/mL (≈ 2260 µM)

Question: And the solubility at 24 h ([2]; aqueous excipient stock solution, 2 °C, in Cremophor RH 40 1.0% (w/w), 2-8° C., read-out: Solubility (mg/mL) 2-8° C.)?
Answer: 0.17 mg/mL (≈ 432 µM)
